Assay: molar heat capacity at constant pressure
Conditions: 101.33 kPa, Crystal, Vacuum adiabatic calorimetry

CCCC(=O)OC [methyl butanoate]
Conditions	molar heat capacity at constant pressure [J/K/mol]
5 K	0.356
7.61 K	1.24
7.88 K	1.381
8.13 K	1.514
8.39 K	1.657
8.65 K	1.805
8.9 K	2.108
9.16 K	2.207
9.41 K	2.466
9.66 K	2.549
9.91 K	2.719
10 K	2.828
10.22 K	2.894
10.6 K	3.3
10.98 K	3.648
11.35 K	4.064
11.73 K	4.38
12.13 K	4.735
12.5 K	5.111
12.86 K	5.563
13.23 K	5.907
13.6 K	6.278
13.96 K	6.646
14.33 K	7.063
14.68 K	7.551
15 K	7.893
15.04 K	7.92
15.4 K	8.318
15.76 K	8.825
16.11 K	9.332
16.47 K	9.652
16.82 K	10.21
17.17 K	10.66
17.53 K	11.07
17.88 K	11.41
18.23 K	11.84
18.58 K	12.53
18.93 K	12.9
19.28 K	13.53
19.63 K	13.98
19.98 K	14.42
20 K	14.36
20.62 K	15.2
21.39 K	16.16
22.15 K	17.23
22.91 K	18.29
23.67 K	19.35
24.44 K	20.59
25 K	21.25
25.2 K	21.61
25.97 K	22.55
26.73 K	23.64
27.49 K	24.49
28.25 K	25.82
29.01 K	26.93
29.77 K	27.91
30 K	28.14
30.53 K	29.04
31.29 K	29.6
32.82 K	31.82
33.59 K	32.79
34.35 K	33.88
35 K	34.59
35.11 K	34.58
35.86 K	35.63
36.61 K	36.63
37.37 K	37.49
38.12 K	38.33
38.88 K	38.88
39.63 K	39.87
40 K	40.28
40.39 K	40.69
41.14 K	41.43
41.9 K	42.12
42.65 K	43.21
43.4 K	44
44.16 K	44.51
44.91 K	45.66
45 K	45.57
45.66 K	46.29
46.41 K	47.13
47.17 K	47.63
47.92 K	48.66
48.66 K	49.52
49.41 K	50.2
50 K	50.77
50.16 K	50.98
50.91 K	51.69
51.66 K	52.27
52.4 K	53.16
53.15 K	54.06
53.89 K	54.63
54.64 K	55.7
55 K	55.94
55.38 K	56.48
56.12 K	57.16
56.87 K	57.9
59.09 K	60.08
59.84 K	60.45
60 K	60.87
60.58 K	61.42
61.32 K	62.07
62.06 K	62.68
62.8 K	63.44
63.54 K	64.04
64.28 K	64.72
65 K	65.14
65.03 K	65.05
65.77 K	65.7
66.5 K	66.39
67.24 K	66.79
67.98 K	67.34
68.72 K	67.73
69.46 K	68.24
70 K	68.48
70.2 K	68.47
71.09 K	68.75
72.14 K	69.62
73.19 K	70.47
74.24 K	70.88
75 K	71.36
75.29 K	71.51
76.34 K	72.3
77.39 K	72.87
78.44 K	73.35
78.68 K	72.62
79.48 K	74.12
79.71 K	73.82
80 K	74.1
80.53 K	74.83
80.74 K	74.41
81.58 K	75.43
81.76 K	74.8
82.62 K	75.67
82.79 K	75.48
83.67 K	76.36
83.81 K	75.48
84.83 K	76.86
85 K	76.9
85.85 K	77.51
86.87 K	77.78
87.89 K	78.68
88.91 K	79.57
89.93 K	79.99
90 K	79.81
90.96 K	80.42
91.97 K	80.85
92.99 K	81.43
94.01 K	82.02
95 K	82.75
95.03 K	82.39
96.04 K	83.43
97.06 K	84.19
98.07 K	84.16
99.09 K	84.89
100 K	85.29
100.1 K	85.45
101.62 K	86.18
103.64 K	87.3
105.66 K	88.28
107.68 K	89.36
109.7 K	90.17
110 K	90.46
111.72 K	91.08
113.73 K	92.15
115.74 K	93.34
117.75 K	94.24
119.76 K	95.16
120 K	95.31
121.76 K	96.24
123.77 K	97.13
125.78 K	98.02
127.78 K	98.84
129.79 K	99.75

Source: the NIST ThermoML archive (doi:10.1016/j.jct.2011.10.001)
